{
  "source": "patent US9254341B2",
  "about": "“Methods of manufacture of pteroyl-amino acid-fluorescent dyes” (On Target Laboratories, LLC, priority 2013, dated 2016)",
  "key": {"folate receptors": {"target": "T1, folate receptors (Homo sapiens, UniProt P15328)", "T1 construct": "KB cells that overexpress FR-α were seeded in 24-well (100,000 cells/well) Falcon plates; endogenous in cells; host or cells: KB cells (ATCC), grown in folate-free RPMI 1640", "T1 sequence (P15328 25-234)": "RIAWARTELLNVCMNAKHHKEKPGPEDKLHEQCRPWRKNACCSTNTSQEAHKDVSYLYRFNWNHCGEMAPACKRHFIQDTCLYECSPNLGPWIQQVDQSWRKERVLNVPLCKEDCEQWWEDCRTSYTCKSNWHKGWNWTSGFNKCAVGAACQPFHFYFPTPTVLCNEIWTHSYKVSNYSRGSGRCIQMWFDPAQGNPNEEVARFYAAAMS", "experiment": "Competitive binding with [3H] folic acid on KB cells that overexpress FR-alpha", "details": "for Kd: read-out: dissociation constant (Kd); for Relative binding affinity: relative affinity of folic acid=1, molar ratio required to displace 50% of [3H] folic acid", "protocol": "(§1) KB cells (a human nasopharyngeal cell line) were obtained from American type culture collection (Rockville, Md.) and grown as a monolayer using folate free 1640 RPMI medium containing (Gibco, N.Y.) 10% heat-inactivated fetal bovine serum (Atlanta Biological, Ga.) and 1% penicillin streptomycin (Gibco, N.Y.) in a 5% carbon dioxide: 95% air-humidified atmosphere at 37° C. for at least six passages before they were used for the assays.\nKB cells that overexpress FR-α were seeded in 24-well (100,000 cells/well) Falcon plates (BD Biosciences, Calif.) and allowed to form monolayers over a period of 12 hours. […] After incubating for 1 hour at 37° C., cells were rinsed with PBS (3×0.5 mL, Gibco, N.Y.) to remove any unbound radioactive materials. After adding 0.25 M sodium hydroxide (0.5 mL) and incubating for 12 hours at 4° C., cells were transferred into individual scintillation vials containing Ecolite scintillation cocktail (3.0 mL, MP Biomedicals, Ohio) and counted in a liquid scintillation analyzer (Packard). The relative binding affinities were calculated using a plot of % cell bound radioactivity versus the log concentration of the test article using GraphPad Prism 4."}, "[1]": {"test_system": "ovarian cancer malignant lesions", "details": "human ovarian cancer patients, intra-operative; cited from earlier work"}, "[2]": {"experiment": "Stability of OTL-0038 liquid, achiral HPLC", "assay_type": "physicochemical", "details": "for Achiral HPLC: Liquid 5 mg per ml, 2 ml fill, PBS, 1 month; for stability of the liquid: 5° C.", "protocol": "(§2) Stability data of Pte-L Tyrosine-S0456 (OTL-0038):\nAt 40° C. the liquid lost 8.6% at 270 nm and 1% at 774 nm. At room temperature the liquid lost about 1.4% at 270 nm and 0.5% at 774 nm."}, "[3]": {"experiment": "Stability of OTL-0038 lyophilized product, achiral HPLC", "assay_type": "physicochemical", "details": "for Achiral HPLC: Lyophilization 5 mg per ml, 2 ml fill, Water, 1 month; for loss of the lyophilized product: 40° C.; for stability of the lyophilized product: first month", "from_the_text": "as §2"}, "[4]": {"test_system": "KB tumor xenografts (folate receptor positive)", "experiment": "Whole body imaging and tissue biodistribution in mice bearing folate receptor-positive tumor xenografts", "assay_type": "in vivo", "details": "nude mice, KB tumors, 10 nmol intravenously, 2.5 hours", "protocol": "as §1\n(§3) Athymic female nude (nu/nu) mice (5 weeks old, 18-20 g) were purchased from Harlan Laboratories (Indianapolis, Ind.) and maintained on gamma-irradiated folate-deficient special diet (Teklad, Wis.) for at least 2 weeks before the start of the study. […]\n(§4) Seven-week-old female nu/nu mice were inoculated subcutaneously with KB cells (1.0×10^6/mouse in folate free RPMI 1640 medium) on the shoulder. Growth of the tumors was measured in perpendicular directions every 2 days using a caliper (body weights were monitored on the same schedule), and the volumes of the tumors were calculated as 0.5×L×W^2 (L=longest axis and W=axis perpendicular to L in millimeters). […]\n(§5) Following whole body imaging, animals were dissected and selected tissues (heart, lung, liver, spleen, kidneys, stomach, small intestine, large intestine, muscle, skin, tumor) were analyzed for fluorescence activity using IVIS imager as before. […]"}, "[5]": {"test_system": "KB tumor xenografts (folate receptor positive)", "experiment": "Comparative whole body imaging and tissue biodistribution with folate derived near IR agents", "assay_type": "in vivo", "details": "nude mice, KB tumors", "protocol": "as §1\nas §3, with “nude” for “nude (nu/nu)”, “study. Animals were housed 5/cage in a barrier, pathogen-free cloaked rack.” for “study.”\nas §4, with “measured In” for “measured in”, “as 0.5×L×[…]” for “as 0.5×L×W^2”\nas §5"}, "[6]": {"test_system": "A549 tumor xenografts (folate receptor negative)", "experiment": "Whole body imaging and biodistribution in mice bearing folate receptor-negative tumor xenografts", "assay_type": "in vivo", "protocol": "as §1, with “A549” for “KB”, “alveolar basal epithelial carcinoma” for “human nasopharyngeal”, “using” for “using folate free”\nAthymic female nude (nu/nu) mice (6 weeks old, 18-20 g) were purchased from Harlan Laboratories (Indianapolis, Ind.) and maintained on normal diet (Teklad, Wis.). Animals were housed 5/cage in a barrier, pathogen-free cloaked rack. Autoclaved tap water and food were given as needed. The animals were housed in a sterile environment on a standard 12 hours light-dark cycle for the duration of the study. Mice were identified individually by ear punch. All animal procedures were approved by Purdue Animal Care and Use Committee. Animal care and studies were performed according to national and international guidelines for the humane treatment of animals.\nSeven-week-old female nu/nu mice were inoculated subcutaneously with A549 cells (1.0×10^6/mouse in RPMI 1640 medium) on the shoulder. Growth of the tumors was measured in perpendicular directions every 2 days using a caliper (body weights were monitored on the same schedule), and the volumes of the tumors were calculated as 0.5×L×W^2(L=longest axis and W=axis perpendicular to L in millimeters). Once tumors reached between 400 and 500 mm^3 in volume, animals (6 mice/group) were intravenously injected with 10 nmol of OTL-0038 in phosphate buffered saline (100 μL). After 2.5 h, animals were sacrificed by CO2 asphyxiation. Whole body imaging (intact tumor) experiments were then performed using a Caliper IVIS Lumina II Imaging Station with Living Image 4.0 software (PerkinElmer Inc, Mass.). Settings for imaging:-lamp level: medium; excitation: 745 nm; emission: ICG (indocyanine green); epi illumination; binning: 4 (M), FOV=12.5; f-stop=2; acquisition time=1 s.\nFollowing whole body imaging, animals were dissected and selected tissues (heart, lung, liver, spleen, kidneys, stomach, small intestine, large intestine, muscle, skin, tumor) were analyzed for fluorescence activity using IVIS imager as before. Settings for imaging:-lamp level: medium; excitation: 745 nm; emission: ICG; epi illumination; binning: 4 (M), FOV=12.5; f-stop=2; acquisition time=1 s."}},
  "note": "“Also recorded” adds a separate entry of the source.",
  "data": [
    {"compound": "CC1(C)C(=CC=C2CCCC(C=CC3=[N+](CCCCS(=O)(=O)[O-])c4ccc(S(=O)(=O)O)cc4C3(C)C)=C2Oc2ccc(C[C@@H](NC(=O)c3ccc(NCc4cnc5nc(N)[nH]c(=O)c5n4)cc3)C(=O)O)cc2)N(CCCCS(=O)(=O)O)c2ccc(S(=O)(=O)O)cc21", "note": "[OTL-0039, PTE-D-Tyr-S0456]", "values": [
      {"measurement": "affinity for folate receptor, comparison in words", "setting": "folate receptors; KB cells", "result": "lower affinity for folate receptor when compared to folic acid and OTL-0038"},
      {"measurement": "Kd", "setting": "folate receptors", "result": 81.8, "unit": "nM"},
      {"measurement": "Relative binding affinity", "setting": "folate receptors", "result": 0.09}
    ]},
    {"compound": "folate-ethelenediamine-fluorescein isothiocyanate [EC17]", "values": [
      {"measurement": "malignant lesions removed with the aid of the dye than without it", "setting": "[1]", "result": "~5", "unit": "×"}
    ]},
    {"compound": "CC1(C)C(=CC=C2CCCC(C=CC3=[N+](CCCCS(=O)(=O)[O-])c4ccc(S(=O)(=O)O)cc4C3(C)C)=C2Oc2ccc(C[C@H](NC(=O)c3ccc(NCc4cnc5nc(N)[nH]c(=O)c5n4)cc3)C(=O)O)cc2)N(CCCCS(=O)(=O)O)c2ccc(S(=O)(=O)O)cc21", "note": "[OTL-0038, PTE-L-Tyr-S0456]", "values": [
      {"measurement": "Achiral HPLC", "setting": "[2]; 5, 270 nm", "result": 95.88, "unit": "%"},
      {"measurement": "Achiral HPLC", "setting": "[2]; 5, 774 nm", "result": 94.29, "unit": "%"},
      {"measurement": "Achiral HPLC", "setting": "[2]; 25, 270 nm", "result": 94.43, "unit": "%"},
      {"measurement": "Achiral HPLC", "setting": "[2]; 25, 774 nm", "result": 94.05, "unit": "%"},
      {"measurement": "Achiral HPLC", "setting": "[2]; 40, 270 nm", "result": 87.17, "unit": "%"},
      {"measurement": "Achiral HPLC", "setting": "[2]; 40, 774 nm", "result": 93.56, "unit": "%"},
      {"measurement": "Achiral HPLC", "setting": "[2]; −20, 270 nm", "result": 95.80, "unit": "%"},
      {"measurement": "Achiral HPLC", "setting": "[2]; −20, 774 nm", "result": 94.59, "unit": "%"},
      {"measurement": "stability of the liquid", "setting": "[2]; 270 nm", "result": "seems stable"},
      {"measurement": "stability of the liquid", "setting": "[2]; 774 nm", "result": "reasonably stable with a small degradation in purity"},
      {"measurement": "loss of the liquid", "setting": "[2]; 40° C., 270 nm", "result": 8.6, "unit": "%"},
      {"measurement": "loss of the liquid", "setting": "[2]; 40° C., 774 nm", "result": 1, "unit": "%"},
      {"measurement": "loss of the liquid", "setting": "[2]; room temperature, 270 nm", "result": "about 1.4%"},
      {"measurement": "loss of the liquid", "setting": "[2]; room temperature, 774 nm", "result": 0.5, "unit": "%"},
      {"measurement": "Achiral HPLC", "setting": "[3]; 5, 270 nm", "result": 95.88, "unit": "%"},
      {"measurement": "Achiral HPLC", "setting": "[3]; 5, 774 nm", "result": 94.29, "unit": "%"},
      {"measurement": "Achiral HPLC", "setting": "[3]; 25, 270 nm", "result": 94.43, "unit": "%"},
      {"measurement": "Achiral HPLC", "setting": "[3]; 25, 774 nm", "result": 94.05, "unit": "%"},
      {"measurement": "Achiral HPLC", "setting": "[3]; 40, 270 nm", "result": 87.17, "unit": "%"},
      {"measurement": "Achiral HPLC", "setting": "[3]; 40, 774 nm", "result": 93.56, "unit": "%"},
      {"measurement": "Achiral HPLC", "setting": "[3]; −20, 270 nm", "result": 95.80, "unit": "%"},
      {"measurement": "Achiral HPLC", "setting": "[3]; −20, 774 nm", "result": 94.59, "unit": "%"},
      {"measurement": "loss of the lyophilized product", "setting": "[3]; 270 nm", "result": 4.5, "unit": "%"},
      {"measurement": "loss of the lyophilized product", "setting": "[3]; 774 nm", "result": 1.1, "unit": "%"},
      {"measurement": "stability of the lyophilized product", "setting": "[3]; less than room temperature", "result": "stable at less than room temperature for the first month"},
      {"measurement": "stability of the lyophilized product", "setting": "[3]; room temperature", "result": "stable at the first month"},
      {"measurement": "competition with [3H] folic acid", "setting": "folate receptors; KB cells", "result": "competed well"},
      {"measurement": "Kd", "setting": "folate receptors", "result": 10.4, "unit": "nM"},
      {"measurement": "Relative binding affinity", "setting": "folate receptors", "result": 0.71},
      {"measurement": "Whole body imaging: accumulation of fluorescence", "setting": "[4]", "result": "accumulated predominantly in the folate receptor positive tumors, with no substantial fluorescence activity in the other tissues"},
      {"measurement": "Tissue biodistribution: fluorescence in dissected tissues", "setting": "[4]; ex vivo IVIS", "result": "highest fluorescence intensity was observed in FR-positive tumors with no accumulation in the other tissues except the kidneys; also recorded: mainly accumulated in folate receptor positive tumor xenografts and kidneys"},
      {"measurement": "tumor fluorescence intensity, direct comparison", "setting": "[5]; 10 nmol", "result": "brighter (higher) than the mice treated with the other folate-conjugated near IR dyes"},
      {"measurement": "Whole body imaging: accumulation of fluorescence", "setting": "[5]; 10 nmol intravenously, 2.5 hours", "result": "accumulated predominantly in the folate receptor positive tumors"},
      {"measurement": "tumor uptake (ex vivo fluorescence)", "setting": "[6]; A549 folate receptor negative tumors, 10 nmol, 2.5 h", "result": "no fluorescence was observed in folate receptor negative tumors"},
      {"measurement": "in vivo specificity for folate receptor", "setting": "[6]; conclusion of the folate receptor-negative tumor study", "result": "highly specific for folate receptor"},
      {"measurement": "kidney uptake (ex vivo fluorescence)", "setting": "[6]; folate receptor-positive kidneys, 10 nmol, 2.5 h", "result": "high kidney uptake"},
      {"measurement": "Whole body imaging: accumulation of fluorescence", "setting": "[6]; nude mice, A549 tumors, 10 nmol intravenously, 2.5 h", "result": "did not accumulated in the folate receptor negative tumors"}
    ]}
  ]
}
